From ChEMBL document CHEMBL4507259 (2021)

Columns and labels:
Hs 294T = assay: Hs294T cell line Proliferation assay; format: functional, Homo sapiens; details: Compound concentration 10 uM; time 5 day
[1] = target: 5-hydroxytryptamine receptor 2B (Homo sapiens, UniProt P41595); assay: GPCRScan assay: inhibition of 5-HT2B; design: radioligand conc. used [nm] 1.0 – 2.0, parental cells stable HEK
HCC1937 = assay: HCC1937 cell line Proliferation assay; format: functional, Homo sapiens; details: Compound concentration 10 uM; time 5 day
NU-DUL-1 = assay: NuDUL1 cell line Proliferation assay; format: functional, Homo sapiens; details: Compound concentration 10 uM; time 3 day
CA46 = assay: CA46 cell line Proliferation assay; format: functional, Homo sapiens; details: Compound concentration 10 uM; time 3 day
RL = assay: RL cell line Proliferation assay; format: functional, Homo sapiens; details: Compound concentration 10 uM; time 3 day
DU-4475 = assay: DU4475 cell line Proliferation assay; format: functional, Homo sapiens; details: Compound concentration 10 uM; time 5 day
RCK8 = assay: RCK8 cell line Proliferation assay; format: functional, Homo sapiens; details: Compound concentration 10 uM; time 3 day
NCI-H211 = assay: H211 cell line Proliferation assay; format: functional, Homo sapiens; details: Compound concentration 10 uM; time 4 day
[2] = target: Prostaglandin G/H synthase 2 (Homo sapiens) (UniProt P35354); assay: COX2(h) CEREP ligand profiling; details: Compound concentration 10.0 uM
KMS-11 = assay: KMS-11 cell line Proliferation assay; format: functional, Homo sapiens; details: Compound concentration 10 uM; time 3 day
SK-MEL-5 = assay: SKMEL5 cell line Proliferation assay; format: functional, Homo sapiens; details: Compound concentration 10 uM; time 5 day
HCC70 = assay: HCC70 cell line Proliferation assay; format: functional, Homo sapiens; details: Compound concentration 10 uM; time 5 day
SKM-1 = assay: SKM-1 cell line Proliferation assay; format: functional, Homo sapiens; details: Compound concentration 10 uM; time 3 day
OCI-Ly3 = assay: OCI Ly3 cell line Proliferation assay; format: functional, Homo sapiens; details: Compound concentration 10 uM; time 3 day
NCI-H69 = assay: H69 cell line Proliferation assay; format: functional, Homo sapiens; details: Compound concentration 10 uM; time 4 day
[3] = target: Sodium-dependent noradrenaline transporter (Homo sapiens) (UniProt P23975); details: Compound concentration 10.0 uM
SU-DHL-6 = assay: SuDHL6 cell line Proliferation assay; format: functional, Homo sapiens; details: Compound concentration 10 uM; time 3 day
AMO1 = assay: AMO-1 cell line Proliferation assay; format: functional, Homo sapiens; details: Compound concentration 10 uM; time 3 day
L-363 = assay: L-363 cell line Proliferation assay; format: functional, Homo sapiens; details: Compound concentration 10 uM; time 3 day
A-375 = assay: A375 cell line Proliferation assay; format: functional, Homo sapiens; details: Compound concentration 10 uM; time 5 day
Karpas-1106P = assay: K1106 cell line Proliferation assay; format: functional, Homo sapiens; details: Compound concentration 10 uM; time 3 day
HL-60 = assay: HL-60 cell line Proliferation assay; format: functional, Homo sapiens; details: Compound concentration 10 uM; time 3 day
MM1.S = assay: MM1.s cell line Proliferation assay; format: functional, Homo sapiens; details: Compound concentration 10 uM; time 3 day
Malme-3M = assay: Malme3M cell line Proliferation assay; format: functional, Homo sapiens; details: Compound concentration 10 uM; time 5 day
DU-145 = assay: DU-145 cell line Proliferation assay; format: functional, Homo sapiens; details: Compound concentration 10 uM; time 5 day
COLO-679 = assay: Colo679 cell line Proliferation assay; format: functional, Homo sapiens; details: Compound concentration 10 uM; time 5 day
Daudi = assay: Daudi cell line Proliferation assay; format: functional, Homo sapiens; details: Compound concentration 10 uM; time 3 day
HCC1806 = assay: HCC1806 cell line Proliferation assay; format: functional, Homo sapiens; details: Compound concentration 10 uM; time 5 day
WM 266-4 = assay: WM2664 cell line Proliferation assay; format: functional, Homo sapiens; details: Compound concentration 10 uM; time 5 day
[4] = target: Histone acetyltransferase KAT6B (Homo sapiens) (UniProt Q8WYB5); assay: MYST4 (HAT) CEREP ligand profiling; details: Compound concentration 10.0 uM
NCI-H441 = assay: H441 cell line Proliferation assay; format: functional, Homo sapiens; details: Compound concentration 10 uM; time 3 day
JVM-2 = assay: JVM-2 cell line Proliferation assay; format: functional, Homo sapiens; details: Compound concentration 10 uM; time 3 day
[5] = target: Adenosine receptor A3 (Homo sapiens) (UniProt P0DMS8); assay: A3 (h) CEREP ligand profiling; details: filed as agonist, Compound concentration 10.0 uM
MDA-MB-436 = assay: MDA_MB_436 cell line Proliferation assay; format: functional, Homo sapiens; details: Compound concentration 10 uM; time 5 day
OCI-Ly7 = assay: OCI Ly7 cell line Proliferation assay; format: functional, Homo sapiens; details: Compound concentration 10 uM; time 3 day
[6] = target: Histone acetyltransferase KAT6A (Homo sapiens) (UniProt Q92794); assay: MYST3 (HAT) CEREP ligand profiling; details: Compound concentration 10.0 uM
COR-L47 = assay: Cor-L47 cell line Proliferation assay; format: functional, Homo sapiens; details: Compound concentration 10 uM; time 4 day
NCI-H1693 = assay: H1693 cell line Proliferation assay; format: functional, Homo sapiens; details: Compound concentration 10 uM; time 3 day
Raji = assay: Raji cell line Proliferation assay; format: functional, Homo sapiens; details: Compound concentration 10 uM; time 3 day
SU-DHL-16 = assay: SuDHL16 cell line Proliferation assay; format: functional, Homo sapiens; details: Compound concentration 10 uM; time 3 day
U-2973 = assay: U2973 cell line Proliferation assay; format: functional, Homo sapiens; details: Compound concentration 10 uM; time 3 day
SK-MEL-1 = assay: SKMEL1 cell line Proliferation assay; format: functional, Homo sapiens; details: Compound concentration 10 uM; time 5 day
NCI-H596 = assay: H596 cell line Proliferation assay; format: functional, Homo sapiens; details: Compound concentration 10 uM; time 3 day
NCI-H838 = assay: H838 cell line Proliferation assay; format: functional, Homo sapiens; details: Compound concentration 10 uM; time 3 day
MOLM-13 = assay: MOLM-13 cell line Proliferation assay; format: functional, Homo sapiens; details: Compound concentration 10 uM; time 3 day
Mino = assay: Mino cell line Proliferation assay; format: functional, Homo sapiens; details: Compound concentration 10 uM; time 3 day
[7] = target: Histone acetyltransferase KAT5 (Homo sapiens) (UniProt Q92993); assay: TIP60 (HAT) CEREP ligand profiling; details: Compound concentration 10.0 uM
KARPAS-422 = assay: Karpas422 cell line Proliferation assay; format: functional, Homo sapiens; details: Compound concentration 10 uM; time 3 day
NCI-H1373 = assay: H1373 cell line Proliferation assay; format: functional, Homo sapiens; details: Compound concentration 10 uM; time 3 day
NCI-H661 = assay: H661 cell line Proliferation assay; format: functional, Homo sapiens; details: Compound concentration 10 uM; time 3 day
EOL1 = assay: EOL-1 cell line Proliferation assay; format: functional, Homo sapiens; details: Compound concentration 10 uM; time 3 day
HCC1599 = assay: HCC1599 cell line Proliferation assay; format: functional, Homo sapiens; details: Compound concentration 10 uM; time 5 day
SU-DHL-2 = assay: SuDHL2 cell line Proliferation assay; format: functional, Homo sapiens; details: Compound concentration 10 uM; time 3 day
D(3) dopamine receptor = D(3) dopamine receptor (Homo sapiens, UniProt P35462); assay: GPCRScan assay: inhibition of D3; design: radioligand conc. used [nm] 0.5 – 1.8, parental cells HEKT
[8] = target: Endothelin receptor type B (Homo sapiens) (UniProt P24530); assay: ETB (h) CEREP ligand profiling; details: filed as agonist, Compound concentration 10.0 uM
[9] = target: Protein kinase C iota type (Homo sapiens) (UniProt P41743); details: Compound concentration 1000.0 nM
[10] = target: T1, 5-hydroxytryptamine receptor 1A (Homo sapiens) (UniProt P08908); assay: 5-HT1A (h) CEREP ligand profiling; details: filed as agonist, Compound concentration 10.0 uM
T1 sequence (whole entry): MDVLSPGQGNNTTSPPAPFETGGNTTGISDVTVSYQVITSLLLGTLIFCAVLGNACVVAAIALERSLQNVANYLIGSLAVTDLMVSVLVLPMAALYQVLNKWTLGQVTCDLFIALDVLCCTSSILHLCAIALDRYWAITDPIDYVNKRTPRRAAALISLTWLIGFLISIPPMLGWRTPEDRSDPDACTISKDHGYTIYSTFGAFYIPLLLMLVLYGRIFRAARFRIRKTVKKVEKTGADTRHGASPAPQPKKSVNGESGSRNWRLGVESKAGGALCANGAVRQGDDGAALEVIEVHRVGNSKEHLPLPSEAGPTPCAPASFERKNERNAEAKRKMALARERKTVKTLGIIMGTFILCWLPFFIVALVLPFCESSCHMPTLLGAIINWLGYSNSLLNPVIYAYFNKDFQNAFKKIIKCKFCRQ

[11] = target: Cyclin-dependent kinase 18 (Homo sapiens) (UniProt Q07002); details: Compound concentration 1000.0 nM
[12] = target: Mu-type opioid receptor (Homo sapiens) (UniProt P35372); details: Compound concentration 10.0 uM
[13] = target: Mitogen-activated protein kinase 11 (Homo sapiens) (UniProt Q15759); details: Compound concentration 1000.0 nM
[14] = target: Serine/threonine-protein kinase N1 (Homo sapiens) (UniProt Q16512); details: Compound concentration 1000.0 nM
Serine/threonine-protein kinase N1 (Homo sapiens), sequence (Q16512 2-942 limits assumed): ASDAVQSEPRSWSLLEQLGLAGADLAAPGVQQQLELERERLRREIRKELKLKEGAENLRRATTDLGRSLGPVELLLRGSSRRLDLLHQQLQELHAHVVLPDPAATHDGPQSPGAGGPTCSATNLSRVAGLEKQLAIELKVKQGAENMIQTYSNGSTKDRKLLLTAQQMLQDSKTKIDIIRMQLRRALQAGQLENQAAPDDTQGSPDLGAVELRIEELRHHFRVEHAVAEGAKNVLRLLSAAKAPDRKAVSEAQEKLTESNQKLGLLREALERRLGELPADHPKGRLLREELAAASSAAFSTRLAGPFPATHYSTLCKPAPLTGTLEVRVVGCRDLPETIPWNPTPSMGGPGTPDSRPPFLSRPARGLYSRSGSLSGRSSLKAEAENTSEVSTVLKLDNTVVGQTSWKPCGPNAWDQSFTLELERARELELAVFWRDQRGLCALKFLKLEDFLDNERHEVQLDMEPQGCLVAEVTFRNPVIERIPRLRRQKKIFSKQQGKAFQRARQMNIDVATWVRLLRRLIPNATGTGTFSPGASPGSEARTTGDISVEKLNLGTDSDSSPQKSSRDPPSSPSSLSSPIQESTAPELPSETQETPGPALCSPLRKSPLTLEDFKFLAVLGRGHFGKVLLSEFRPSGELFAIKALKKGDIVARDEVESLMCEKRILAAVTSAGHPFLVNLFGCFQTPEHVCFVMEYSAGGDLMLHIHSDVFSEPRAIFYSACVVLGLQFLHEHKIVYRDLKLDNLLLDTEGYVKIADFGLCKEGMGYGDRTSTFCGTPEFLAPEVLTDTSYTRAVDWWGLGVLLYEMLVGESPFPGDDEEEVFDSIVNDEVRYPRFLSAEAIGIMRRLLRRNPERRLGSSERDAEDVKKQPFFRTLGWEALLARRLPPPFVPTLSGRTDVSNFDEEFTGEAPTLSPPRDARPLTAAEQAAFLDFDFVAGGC

D(3) dopamine receptor, sequence (P35462 whole entry): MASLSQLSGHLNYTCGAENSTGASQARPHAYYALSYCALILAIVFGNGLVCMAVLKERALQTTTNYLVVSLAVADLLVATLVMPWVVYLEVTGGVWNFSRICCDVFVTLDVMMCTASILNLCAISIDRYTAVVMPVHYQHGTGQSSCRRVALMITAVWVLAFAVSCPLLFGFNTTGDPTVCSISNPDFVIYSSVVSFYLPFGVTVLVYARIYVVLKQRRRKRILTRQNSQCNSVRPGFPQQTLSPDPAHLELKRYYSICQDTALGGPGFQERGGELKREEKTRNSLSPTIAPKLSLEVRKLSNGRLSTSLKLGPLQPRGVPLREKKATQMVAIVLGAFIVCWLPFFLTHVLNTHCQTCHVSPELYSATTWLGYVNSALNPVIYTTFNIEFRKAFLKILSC
5-hydroxytryptamine receptor 2B, sequence (P41595 whole entry): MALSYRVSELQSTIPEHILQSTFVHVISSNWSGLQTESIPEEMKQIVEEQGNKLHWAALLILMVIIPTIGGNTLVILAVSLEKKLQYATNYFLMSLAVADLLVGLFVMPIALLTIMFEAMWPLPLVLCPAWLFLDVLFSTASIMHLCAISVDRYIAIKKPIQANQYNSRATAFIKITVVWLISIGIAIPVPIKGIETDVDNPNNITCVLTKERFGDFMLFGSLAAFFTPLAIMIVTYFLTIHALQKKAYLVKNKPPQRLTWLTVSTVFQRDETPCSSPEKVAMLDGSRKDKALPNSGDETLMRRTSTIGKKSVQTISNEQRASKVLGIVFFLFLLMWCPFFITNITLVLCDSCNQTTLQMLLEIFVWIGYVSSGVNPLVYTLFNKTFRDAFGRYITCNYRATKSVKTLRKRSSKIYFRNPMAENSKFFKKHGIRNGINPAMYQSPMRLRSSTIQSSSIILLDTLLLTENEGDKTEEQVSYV
Protein kinase C iota type (Homo sapiens), sequence (P41743 whole entry): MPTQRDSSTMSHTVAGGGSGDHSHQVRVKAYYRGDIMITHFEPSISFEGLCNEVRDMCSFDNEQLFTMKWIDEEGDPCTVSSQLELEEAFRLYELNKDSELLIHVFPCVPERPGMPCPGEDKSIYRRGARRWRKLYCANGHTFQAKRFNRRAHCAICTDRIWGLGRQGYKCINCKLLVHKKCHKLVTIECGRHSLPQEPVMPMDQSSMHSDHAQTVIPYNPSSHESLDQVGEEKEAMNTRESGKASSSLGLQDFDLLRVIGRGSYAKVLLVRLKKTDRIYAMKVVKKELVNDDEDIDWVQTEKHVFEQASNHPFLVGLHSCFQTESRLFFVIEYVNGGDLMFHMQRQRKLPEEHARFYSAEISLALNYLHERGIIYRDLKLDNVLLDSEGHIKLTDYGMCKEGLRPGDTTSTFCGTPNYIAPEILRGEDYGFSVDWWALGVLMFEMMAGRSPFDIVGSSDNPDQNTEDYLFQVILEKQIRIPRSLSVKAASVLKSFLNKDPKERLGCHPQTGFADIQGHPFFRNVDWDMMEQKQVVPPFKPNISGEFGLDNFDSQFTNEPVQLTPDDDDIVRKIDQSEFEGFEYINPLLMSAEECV
Endothelin receptor type B (Homo sapiens), sequence (P24530 whole entry): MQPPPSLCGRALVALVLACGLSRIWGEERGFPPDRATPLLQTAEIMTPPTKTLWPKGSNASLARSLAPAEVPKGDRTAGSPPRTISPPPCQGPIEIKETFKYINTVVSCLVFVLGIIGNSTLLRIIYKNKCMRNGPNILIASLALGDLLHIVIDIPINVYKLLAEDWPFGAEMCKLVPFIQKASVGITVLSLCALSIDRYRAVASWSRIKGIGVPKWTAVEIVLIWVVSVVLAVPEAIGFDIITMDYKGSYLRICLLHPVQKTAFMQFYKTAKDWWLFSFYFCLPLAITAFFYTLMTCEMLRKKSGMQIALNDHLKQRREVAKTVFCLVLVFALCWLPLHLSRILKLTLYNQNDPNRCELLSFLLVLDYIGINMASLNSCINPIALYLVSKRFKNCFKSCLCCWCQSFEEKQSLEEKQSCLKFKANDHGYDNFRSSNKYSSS
Mu-type opioid receptor (Homo sapiens), sequence (P35372 whole entry): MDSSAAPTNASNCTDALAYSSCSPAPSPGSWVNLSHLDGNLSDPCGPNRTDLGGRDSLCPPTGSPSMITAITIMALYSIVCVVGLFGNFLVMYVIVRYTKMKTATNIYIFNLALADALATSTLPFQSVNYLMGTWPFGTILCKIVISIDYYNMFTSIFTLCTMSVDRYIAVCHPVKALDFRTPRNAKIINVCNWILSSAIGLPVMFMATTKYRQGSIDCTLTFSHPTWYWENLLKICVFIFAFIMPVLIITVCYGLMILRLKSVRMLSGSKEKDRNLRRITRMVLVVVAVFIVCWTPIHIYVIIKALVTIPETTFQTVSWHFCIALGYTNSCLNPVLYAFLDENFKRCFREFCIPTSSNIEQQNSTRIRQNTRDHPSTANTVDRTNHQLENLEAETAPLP
Sodium-dependent noradrenaline transporter (Homo sapiens), sequence (P23975 whole entry): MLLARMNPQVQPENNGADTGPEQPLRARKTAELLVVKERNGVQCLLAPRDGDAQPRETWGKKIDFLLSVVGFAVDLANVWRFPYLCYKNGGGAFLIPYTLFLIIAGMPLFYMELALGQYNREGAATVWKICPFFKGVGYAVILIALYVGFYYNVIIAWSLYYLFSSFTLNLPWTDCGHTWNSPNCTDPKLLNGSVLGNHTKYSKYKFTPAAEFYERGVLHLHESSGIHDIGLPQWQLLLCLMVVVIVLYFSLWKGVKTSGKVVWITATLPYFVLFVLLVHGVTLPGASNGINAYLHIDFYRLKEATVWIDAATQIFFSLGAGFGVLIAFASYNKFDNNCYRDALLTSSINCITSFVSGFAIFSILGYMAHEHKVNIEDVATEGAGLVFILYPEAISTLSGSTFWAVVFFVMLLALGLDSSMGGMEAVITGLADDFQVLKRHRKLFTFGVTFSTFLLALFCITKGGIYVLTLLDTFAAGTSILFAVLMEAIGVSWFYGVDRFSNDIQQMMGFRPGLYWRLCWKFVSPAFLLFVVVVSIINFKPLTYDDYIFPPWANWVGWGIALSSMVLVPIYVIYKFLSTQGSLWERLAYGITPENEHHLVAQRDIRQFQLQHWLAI
Adenosine receptor A3 (Homo sapiens), sequence (P0DMS8 whole entry): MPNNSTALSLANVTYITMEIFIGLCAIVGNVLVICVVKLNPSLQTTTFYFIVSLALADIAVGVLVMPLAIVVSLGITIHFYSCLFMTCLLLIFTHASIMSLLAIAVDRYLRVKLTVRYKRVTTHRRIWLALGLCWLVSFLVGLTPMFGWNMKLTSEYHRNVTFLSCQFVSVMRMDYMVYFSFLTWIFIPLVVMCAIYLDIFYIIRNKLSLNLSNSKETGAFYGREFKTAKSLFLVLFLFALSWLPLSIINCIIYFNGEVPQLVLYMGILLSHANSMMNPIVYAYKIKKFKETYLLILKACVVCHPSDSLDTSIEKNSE
Cyclin-dependent kinase 18 (Homo sapiens), sequence (Q07002 whole entry): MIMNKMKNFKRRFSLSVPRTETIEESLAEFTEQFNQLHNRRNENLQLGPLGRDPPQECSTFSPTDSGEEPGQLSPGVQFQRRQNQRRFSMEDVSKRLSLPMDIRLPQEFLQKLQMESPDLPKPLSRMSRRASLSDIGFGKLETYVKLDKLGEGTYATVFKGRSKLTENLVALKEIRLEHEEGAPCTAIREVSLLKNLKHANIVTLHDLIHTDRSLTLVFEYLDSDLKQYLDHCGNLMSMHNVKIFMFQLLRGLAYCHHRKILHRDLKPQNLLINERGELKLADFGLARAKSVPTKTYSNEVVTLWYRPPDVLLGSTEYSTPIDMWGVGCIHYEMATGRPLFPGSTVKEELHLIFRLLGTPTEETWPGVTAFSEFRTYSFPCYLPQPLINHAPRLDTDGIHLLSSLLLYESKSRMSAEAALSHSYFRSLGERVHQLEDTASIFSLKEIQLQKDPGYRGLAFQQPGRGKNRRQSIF

CNC(=O)Nc1ccc2c(c1)CC[C@@]21OC(=O)N(CC(=O)N(Cc2ccc(F)cc2)[C@@H](C)C(F)(F)F)C1=O [A-485]
Cell Proliferation EC50 (Hs 294T): 9000 nM
Ki ([1]; read-out: Ki): 1290 nM
Ki ([1]; read-out: pKi (converted)): 1200 nM
Cell Proliferation EC50 (HCC1937): >10000 nM
Cell Proliferation EC50 (NU-DUL-1): 478.1 nM
Cell Proliferation EC50 (CA46): 480.9 nM
Cell Proliferation EC50 (RL): 1047 nM
Cell Proliferation EC50 (DU-4475): 668.3 nM
Cell Proliferation EC50 (RCK8): 589.3 nM
Cell Proliferation EC50 (NCI-H211): 1500 nM
inhibition [2]: 11%
Cell Proliferation EC50 (KMS-11): 241 nM
Cell Proliferation EC50 (SK-MEL-5): 907 nM
Cell Proliferation EC50 (HCC70): >10000 nM
Cell Proliferation EC50 (SKM-1): 1340 nM
Cell Proliferation EC50 (OCI-Ly3): 489.2 nM
Cell Proliferation EC50 (NCI-H69): >10000 nM
inhibition [3]: -3.76%
Cell Proliferation EC50 (SU-DHL-6): 745.7 nM
Cell Proliferation EC50 (AMO1): 1093 nM
Cell Proliferation EC50 (L-363): 509 nM
Cell Proliferation EC50 (A-375): >10000 nM
Cell Proliferation EC50 (Karpas-1106P): 405.1 nM
Cell Proliferation EC50 (HL-60): >10000 nM
Cell Proliferation EC50 (MM1.S): 181 nM
Cell Proliferation EC50 (Malme-3M): 2687 nM
Cell Proliferation EC50 (DU-145): >10000 nM
Cell Proliferation EC50 (COLO-679): 2258 nM
Cell Proliferation EC50 (Daudi): 434.6 nM
Cell Proliferation EC50 (HCC1806): 2951.2 nM
Cell Proliferation EC50 (WM 266-4): 1914 nM
inhibition [4]: 1.4%
Cell Proliferation EC50 (NCI-H441): >10000 nM
Cell Proliferation EC50 (JVM-2): >10000 nM
inhibition [5]: 40%
Cell Proliferation EC50 (MDA-MB-436): >10000 nM
Cell Proliferation EC50 (OCI-Ly7): 1813 nM
inhibition [6]: 5.6%
Cell Proliferation EC50 (COR-L47): >10000 nM
Cell Proliferation EC50 (NCI-H1693): 2367 nM
Cell Proliferation EC50 (Raji): 463.1 nM
Cell Proliferation EC50 (SU-DHL-16): 730.4 nM
Cell Proliferation EC50 (U-2973): 662.2 nM
Cell Proliferation EC50 (SK-MEL-1): 571 nM
Cell Proliferation EC50 (NCI-H596): >10000 nM
Cell Proliferation EC50 (NCI-H838): 6990 nM
Cell Proliferation EC50 (MOLM-13): 350 nM
Cell Proliferation EC50 (Mino): 532.2 nM
inhibition [7]: -1.9%
Cell Proliferation EC50 (KARPAS-422): 245.4 nM
Cell Proliferation EC50 (NCI-H1373): 2341 nM
Cell Proliferation EC50 (NCI-H661): 7664 nM
Cell Proliferation EC50 (EOL1): >10000 nM
Cell Proliferation EC50 (HCC1599): 4852.9 nM
Cell Proliferation EC50 (SU-DHL-2): 953.8 nM

CNC(=O)Nc1ccc2c(c1)[C@@]1(CC2)OC(=O)N(CC(=O)N(Cc2ccc(F)cc2)[C@@H](C)C(F)(F)F)C1=O [A-486]
Ki (D(3) dopamine receptor; read-out: Ki): 1140 nM
Ki (D(3) dopamine receptor; read-out: pKi (converted)): 1100 nM
inhibition [8]: 8%
residual activity [9]: 91%
inhibition [10]: 8%
residual activity [11]: 100%
inhibition [12]: -5.11%
residual activity [13]: 100%
residual activity [14]: 98%
